Read-outs that look alike come from different tables or passages of the source.
Tests used:
[1] = tested on: HIV; conditions: result in words; see Fleet et al., FEBS Lett., In Press, 1988; cited from earlier work
[2] = tested on: HIV; conditions: background literature, b4; cited from earlier work
[3] = tested on: T-45 cells; type: cell-based, human; conditions: for Estimated Cell Growth Virus-uninfected Day 7: no-drug control 1.2x10^6
Procedure: FIG. 1 is a schematic outline of the test procedure used to assess the cytotoxic effect of test compounds on T-cells either infected or non-infected with HIV and in parallel the HIV inhibitory activity of the test compounds. TCID is the tissue culture infectious dose. Cells were cultured in RPMI-1640 medium with 10% fetal calf serum containing 100 units/ml penicillin G and 100 µg/ml streptomycin.
The assay was run in 96 well plastic microtiter plates in which 0.2 ml of culture medium containing 10^4 T-cells are seeded into each well. RPMI-1640 supplemented with 10% fetal calf serum was used as the culture medium. In each assay, 6 wells are used. Three (1-3) are infected with 10^4 TCID/well of HIV-1 or HIV-2 and to the other three (4-6) culture medium alone is added. Medium is changed at the same intervals for each test compound. The detailed assay procedure is illustrated in Figures 1 and 2.
(§1) The efficacy of the test compounds used in this example was assessed as follows: 0.2 ml of culture medium containing 10^4 T-45 cells were transferred into each well of a 96-well flat-bottomed tissue-culture plastic plate and the cells were allowed to settle at 37°C (see Figure 1). After 4 hours the media were aspirated and replaced with media which contained the test compound. Following overnight incubation the media was aspirated and 10^4 TCID of virus (HIV-1 or HIV-2) was added to each well. Incubation was continued at 37°C in 5% CO2 for 1 hour. Thereafter, growth media containing the various compounds were added and incubation at 37°C was continued. On the fourth day the cell suspensions from each well were split and seeded into two new wells and 0.2 ml of fresh media with compounds was added. This was repeated on the seventh day. Cells were examined by microscopy during days 1 to 10 for the presence of syncytia, growth rate and the appearance of the cytopathic effect (CPE) (giant cells, pycnotic nuclei, loss of refractility). CPE (100%) was defined as no round, refractile, uniform cells remaining; only giant, ballooned pyknotic cells were present. The viability of HIV infected cultures was determined by a rough count/estimate of cells which underwent CPE in relation to round refractile uniform (normal) cells in a given culture.
Quantitative data on the effect of the various compounds on the non-infected cells (cytotoxicity) was obtained by comparison of their growth rate to control cells not exposed to drugs (Table 1). […] In addition, the MOLT-4 cell line was also used.

[4] = tested on: HIV; experiment: Inhibition of HIV-associated cytopathic effect (CPE) in T-45 cells; type: cell-based; conditions: HIV infected T-45 cells, various concentrations (Fig. 3); result in words
Procedure: FIG. 3 is a graphical representation in which the inhibition of HIV associated CPE (―% CPE) reduction) and test compound-associated cytotoxicity (---% cell death) is plotted against the media concentration in mg/ml of several test compounds (drugs). The cell viability data was determined for non-HIV infected cells. The test compounds were the N-methyl-, N-ethyl-, and N-butyl derivatives of deoxynojirimycin (DNJ), castanospermine (Cast), N-(5-carboxymethyl-1-pentyl)-1,5-imino-L-fucitol (LFT) and 1,4-dideoxy-1,4-imino-L-arabinitol (LAB).
After a suitable period of incubation, the cultures are scored for the presence of so-called syncytial cells (giant cells). Typical examples of such a test for the evaluation of inhibitors of HIV have been disclosed by Fung et al., Bio/Technology 5, 940-946 (1987); Tyms et al., Lancet, October 31, 1987, pp. 1025-1026; Gruters et al., Nature 330, 74-77 (1987); and Walker et al., Proc. Natl. Acad. Sci. USA 84, 8120-8124 (1987).
as §1, with “culture. Cells in wells which were incubated with compounds which appeared to inhibit or reduce HIV replication and in which there was marked cell proliferation were either transferred to larger wells (of a 24-well plate) or divided in order to maintain an approximate constant cell density to promote continuous cell division.” for “culture.”

SMILES: O[C@H]1[C@H](O)[C@@H](O)CN2CC[C@H](O)[C@H]12 [Cast, castanospermine]
- HIV inhibitory activity / effect on CPE [1]: inhibition of the cytopathic effect (CPE) by the α-glucosidase I inhibitor castanospermine is confirmed
- reduction in virion infectivity [2]: only a modest reduction in virion infectivity
- Estimated Cell Growth Virus-uninfected Day 7 ([3]; Dosage 0.02 mg/ml): 1.2x10^6
- Estimated Cell Growth Virus-uninfected Day 7 ([3]; Dosage 0.09 mg/ml): 1.0x10^6
- Estimated Cell Growth Virus-uninfected Day 7 ([3]; Dosage 0.18 mg/ml): 8.0x10^5
- Estimated Cell Growth Virus-uninfected Day 7 ([3]; Dosage 0.35 mg/ml): 8.0x10^5
- Estimated Cell Growth Virus-uninfected Day 7 ([3]; Dosage 0.70 mg/ml): Toxic
- cytotoxicity ([3]; non-infected cells, over the concentration range used (Fig. 3, Table 1), result in words): cytotoxic
- effect on CPE formation [4]: bell shaped dose-dependence
